{
  "source": "patent US20080233210A1",
  "about": "“Co-Biocidal Formulation for Polymeric Materials” (U.S. BORAX INC., priority 2005, published 2008)",
  "key": {"[1]": {"test_system": "Aspergillus niger, Penicillium pinophilum, Chetomium globusum, Gliocladium virens, Aurebasidium pullulans", "test": "ASTM G-21 fungi resistance of extruded wood/thermoplastic composite boards, unweathered or after QUV accelerated weathering with leaching", "type": "cell-based", "design": "key to Visual Assessment of Fungal Growth (0-4 scale) / Visual assessment of fungal growth, ZB = 2%, Weathering 0 h: 0: None; Traces of growth (less than 10%); 2: Light growth (10 to 30%); Medium growth (more than 30 to 60%); 4: Heavy growth (60% to complete coverage)", "settings": "for Visual Assessment of Fungal Growth (0-4 scale): pine WPC without UV stabilizer; for Visual Assessment of Fungal Growth (0-4 scale) / visual assessment, 0-4 fungal growth assessment scale: cobiocide content 0% (borate alone); for visual assessment, 0-4 fungal growth assessment scale: oak WPC, no UV stabilizer package", "protocol": "Three 50×50×4 mm specimens were cut from the core of extruded boards, sterilized with a 30 kGy dose of Electron beam radiation and exposed to fungi attack according to ASTM G-21.\nAfter 28 days exposure to the fungi at 98% relative humidity and 28° C., specimens were evaluated using the first scale, from 0-4 as recommended by ASTM G-21 (see Table 3). Results are shown in Table 4 with the summary in Tables 5-7.\nSamples prepared according to Example 1 were exposed to accelerated weathering using a QUV accelerated weathering chamber with fluorescent bulb combined with leaching cycle. […] This includes cycles comprised of 8 h UV light (UVA 340 lamps @0.77 W/m^2/nm) @60° C. followed by 4 hours condensation @50° C. Samples were exposed to these conditions for 15 hours and then leached in water. Leaching consisted of 4 hours soaking and 3 hours drip dry (1 hours was required for sample handling). […] After exposure, three 1″×2.5″×⅛″ specimens were cut from the sample. The surface exposed to light and leaching and tested for fungi resistance as described in example 2. Results are presented in Table 3 with summary in Tables 4-6\nSamples prepared according to Example 1 were exposed to accelerated weathering using a QUV accelerated weathering chamber with fluorescent bulb combined with leaching cycle. Total exposure time was 1000 hours. This includes cycles comprised of 8 h UV light (UVA 340 lamps @0.77 W/m^2/nm) @60° C. followed by 4 hours condensation @50° C. Samples were exposed to these conditions for 16 hours and then leached in water. Leaching consisted of 4 hours soaking and 3 hours drip dry (1 h was required for sample handling). […] After exposure, three 1″×2.5″×⅛″ specimens were cut from the sample. The surface exposed to light and leaching and tested for fungi resistance as described in Example 2. Results are presented in Table 3 with summary in Tables 4-6."}, "[2]": {"test_system": "Aspergillus niger, Penicillium pinophilum, Chetomium globusum, Gliocladium virens, Aurebasidium pullulans", "test": "ASTM G-21 fungi exposure of dried paint coating films", "type": "cell-based", "settings": "coating film, ASTM G-21, 28 days; very high concentrations of Chlortram (0.33%)", "protocol": "The coatings were cast on flat polyethylene sheeting and dried into 10 mil thick film before removal from the polyethylene substrate. The dried paint coatings were cut into 2″×2″ square specimens, sterilized with 30 kGy EB radiation and exposed to fungi attack according to ASTM G-21. After 28 days exposure to the fungi at 98% relative humidity and 28° C., the specimens were evaluated using two scales."}},
  "data": [
    {"molecule": "OB(O)O", "note": "[BA]", "values": [
      {"measurement": "Visual Assessment of Fungal Growth (0-4 scale)", "setting": "[1]; BA = 1%, weathering 0 hours", "value": "4 (Heavy growth (60% to complete coverage))"},
      {"measurement": "Visual Assessment of Fungal Growth (0-4 scale)", "setting": "[1]; BA = 2%, weathering 0 hours", "value": "3 (Medium growth (more than 30 to 60%))"}
    ]},
    {"molecule": "N#Cc1c(Cl)c(Cl)c(Cl)c(C#N)c1Cl", "note": "[Chlortram, 2,4,5,6 tetrachloro-1,3-benzene-dicarbonitrile]", "values": [
      {"measurement": "fungal growth observed on coating specimens", "setting": "[2]", "value": "No fungal growth"}
    ]},
    {"molecule": "Zinc borate [ZB]", "values": [
      {"measurement": "visual assessment, 0-4 fungal growth assessment scale", "setting": "[1]; ZB = 1%, weathering 0 h", "value": "4 (Heavy growth (60% to complete coverage))"},
      {"measurement": "visual assessment, 0-4 fungal growth assessment scale", "setting": "[1]; ZB = 1%, weathering 500 h", "value": "4 (Heavy growth (60% to complete coverage))"},
      {"measurement": "visual assessment, 0-4 fungal growth assessment scale", "setting": "[1]; ZB = 1%, weathering 1000 h", "value": "3 (Medium growth (more than 30 to 60%))"},
      {"measurement": "visual assessment, 0-4 fungal growth assessment scale", "setting": "[1]; ZB = 1.5%, weathering 0 h", "value": "2 (Light growth (10 to 30%))"},
      {"measurement": "visual assessment, 0-4 fungal growth assessment scale", "setting": "[1]; ZB = 2%, weathering 0 h", "value": "2 (Light growth (10 to 30%))"},
      {"measurement": "visual assessment, 0-4 fungal growth assessment scale", "setting": "[1]; ZB = 2%, weathering 500 h", "value": "3 (Medium growth (more than 30 to 60%))"},
      {"measurement": "visual assessment, 0-4 fungal growth assessment scale", "setting": "[1]; ZB = 2%, weathering 1000 h", "value": "3 (Medium growth (more than 30 to 60%))"},
      {"measurement": "Visual assessment of fungal growth, ZB = 1%, Weathering 0 h", "setting": "[1]; pine WPC with UV stabilizer package, cobiocide content 0%, ZB = 1%, 0 h", "value": "1 (Traces of growth (less than 10%))"},
      {"measurement": "Visual assessment of fungal growth, ZB = 1%, Weathering 500 h", "setting": "[1]; pine WPC with UV stabilizer package, cobiocide content 0%, ZB = 1%, 500 h", "value": "4 (Heavy growth (60% to complete coverage))"},
      {"measurement": "Visual assessment of fungal growth, ZB = 1%, Weathering 1000 h", "setting": "[1]; pine WPC with UV stabilizer package, cobiocide content 0%, ZB = 1%, 1000 h", "value": "4 (Heavy growth (60% to complete coverage))"},
      {"measurement": "Visual assessment of fungal growth, ZB = 2%, Weathering 0 h", "setting": "[1]; pine WPC with UV stabilizer package, cobiocide content 0%, ZB = 2%, 0 h", "value": 0},
      {"measurement": "Visual assessment of fungal growth, ZB = 2%, Weathering 500 h", "setting": "[1]; pine WPC with UV stabilizer package, cobiocide content 0%, ZB = 2%, 500 h", "value": "3 (Medium growth (more than 30 to 60%))"},
      {"measurement": "Visual assessment of fungal growth, ZB = 2%, Weathering 1000 h", "setting": "[1]; pine WPC with UV stabilizer package, cobiocide content 0%, ZB = 2%, 1000 h", "value": "4 (Heavy growth (60% to complete coverage))"},
      {"measurement": "Visual Assessment of Fungal Growth (0-4 scale)", "setting": "[1]; ZB = 1%, weathering 0 h", "value": "2 (Light growth (10 to 30%))"},
      {"measurement": "Visual Assessment of Fungal Growth (0-4 scale)", "setting": "[1]; ZB = 1%, weathering 500 h", "value": "4 (Heavy growth (60% to complete coverage))"},
      {"measurement": "Visual Assessment of Fungal Growth (0-4 scale)", "setting": "[1]; ZB = 1%, weathering 1000 h", "value": "4 (Heavy growth (60% to complete coverage))"},
      {"measurement": "Visual Assessment of Fungal Growth (0-4 scale)", "setting": "[1]; ZB = 1.5%, weathering 0 hours", "value": "1 (Traces of growth (less than 10%))"},
      {"measurement": "Visual Assessment of Fungal Growth (0-4 scale)", "setting": "[1]; ZB = 2%, weathering 0 h", "value": 0},
      {"measurement": "Visual Assessment of Fungal Growth (0-4 scale)", "setting": "[1]; ZB = 2%, weathering 500 h", "value": "4 (Heavy growth (60% to complete coverage))"}
    ]}
  ]
}
